From publication PMC10996807 (Research Square, 2024) come the findings set out here.

≈ marks a conversion by molar mass, not a printed value.

One assay relates to B. anthracis Sterne. The class given is cell-based, Bacillus anthracis.
The subject of a further assay is B. anthracis. Briefly: microbe, parasite or virus in culture. Conditions: for MIC50 / MIC90: Bacillus anthracis. Type of assay: cell-based.
Assay [1] concerns B. anthracis Ames NR3838 spores. More on the design: species or system New Zealand White rabbits. To be noted: rabbit, in vivo.

Take Lys(Bodipy FL)10-teixobactin: in the assay on B. anthracis Sterne, the “effect of washing on preformed supramolecular structures” value is “no apparent effect” and the “formation of supramolecular structures” value was “apparent”.
As to `O=C(O)c1cn(C2CC2)c2cc(N3CCNCC3)c(F)cc2c1=O` [Ciprofloxacin], in the assay on B. anthracis, the “MIC Range” value was 0.06 to 4 µg/mL, the MIC50 stood at 0.12 µg/mL (≈ 0.362 µM) and the MIC90 was found to be 0.5 µg/mL (≈ 1.51 µM).
Regarding `C[C@@H](O)[C@H]1C(=O)N2C(C(=O)O)=C(SCCN=CN)C[C@H]12` [Imipenem], in the assay on B. anthracis, the “MIC Range” value fell in the range of 0.03 to 1 µg/mL, the MIC50 is 0.06 µg/mL (≈ 0.2 µM) and the MIC90 was found to be 0.12 µg/mL (≈ 0.401 µM).
On to `C[C@H]1c2cccc(O)c2C(=O)C2=C(O)[C@]3(O)C(=O)C(C(N)=O)=C(O)[C@@H](N(C)C)[C@@H]3[C@@H](O)[C@@H]21` [Doxycycline], for which, in the assay on B. anthracis, the “MIC Range” value is at most 0.008 to 0.12 µg/mL, the MIC50 was found to be 0.03 µg/mL (≈ 0.0675 µM) and the MIC90 is 0.06 µg/mL (≈ 0.135 µM).
Regarding `C[C@H]1COc2c(N3CCN(C)CC3)c(F)cc3c(=O)c(C(=O)O)cn1c23` [Levofloxacin], in the assay with B. anthracis, the “MIC Range” value lay in the range of 0.06 to 1 µg/mL, the MIC50 is 0.12 µg/mL (≈ 0.332 µM) and the MIC90 is 0.5 µg/mL (≈ 1.38 µM). The histopathology lesions entry in assay [1] (12.5 mg/kg) was “mitigated lesions”. Besides, the “efficacious dose in rabbits” value in assay [1] (iv) amounted to 12.5 mg/kg.
